Assay results published in patent publication US20240208964A1, “PYRIDOPYRIMIDINES AND METHODS OF THEIR USE” (PYRIDOPYRIMIDINES AND METHODS OF THEIR USE, priority 2020, published 2024).

Key:
FAB1 TDP-43 yeast strain = assay: Propidium iodide viability assay in FAB1 TDP-43 control yeast strain; format: cell-based; conditions: FAB1 TDP-43 yeast model
From the text: (§1) Generation of TDP-43 yeast model expressing human PIKfyve. Human PIKFYVE (“entry clone”) was cloned into pAG416GPDccdB (“destination vector”) according to standard Gateway cloning protocols (Invitrogen, Life Technologies). The resulting pAG416GPD-PIKFYVE plasmids were amplified in E. coli and plasmid identity confirmed by restriction digest and Sanger sequencing. Lithium acetate/polyethylene glycol-based transformation was used to introduce the above PIKFYVE plasmid into a BY4741 yeast strain auxotrophic for the ura3 gene and deleted for two transcription factors that regulate the xenobiotic efflux pumps, a major efflux pump, and FAB1, the yeast ortholog of PIKFYVE (MATa, snq2::KILeu2; pdr3::Klura3;pdrl::NATMX; fab1::G418^R, his3;leu2;ura3;met15;LYS2+) (FIG. 2). Transformed yeast were plated on solid agar plates with complete synthetic media lacking uracil (CSM-ura) and containing 2% glucose. Individual colonies harboring the control or PIKFYVE TDP-43 plasmids were recovered. A plasmid containing wild-type TDP-43 under the transcriptional control of the GAL1 promoter and containing the hygromycin-resistance gene as a selectable marker was transformed into the fab1::G418^R pAG416GPD-PIKFYVE yeast strain (FIG. 1). Transformed yeast were plated on CSM-ura containing 2% glucose and 200 μg/mL […] after overnight recovery in media lacking antibiotic. Multiple independent isolates were further evaluated for cytotoxicity and TDP-43 expression levels.
(§2) Viability Assay. A control yeast strain with the wild-type yeast FAB1 gene and TDP-43 (“FAB1 TDP-43”, carries empty pAG416 plasmid), and the “PIKFYVE TDP-43” yeast strain, were assessed for toxicity using a propidium iodide viability assay. Both yeast strains were transferred from solid CSM-ura/2% glucose agar plates into 3 mL of liquid CSM-ura/2% glucose media for 6-8 hours at 30° C. with aeration. Yeast cultures were then diluted to an optical density at 600 nm wavelength (OD600) of 0.005 in 3 mL of CSM-ura/2% raffinose and grown overnight at 30° C. with aeration to an OD600 of 0.3-0.8. Log-phase overnight cultures were diluted to OD600 of 0.005 in CSM-ura containing either 2% raffinose or galactose and 150 μL dispensed into each well of a flat bottom 96-well plates. Compounds formulated in 100% dimethyl sulfoxide (DMSO) were serially diluted in DMSO and 1.5 μL diluted compound transferred to the 96-well plates using a multichannel pipet. Wells containing DMSO alone were also evaluated as controls for compound effects. Tested concentrations ranged from 15 μM to 0.11 μM. Cultures were immediately mixed to ensure compound distribution and covered plates incubated at 30° C. for 24 hours in a stationary, humified incubator.
(§3) Upon the completion of incubation, cultures were assayed for viability using propidium iodide (PI) to stain for dead/dying cells. A working solution of PI was made where, for each plate, 1 μL of 10 mM PI was added to 10 mL of CSM-ura (raffinose or galactose). The final PI solution (50 μL/well) was dispensed into each well of a new round bottom 96-well plate. The overnight 96-well assay plate was then mixed with a multichannel pipet and 50 μL transferred to the PI-containing plate. This plate was then incubated for 30 minutes at 30° C. in the dark. A benchtop flow cytometer (Miltenyi MACSquant) was then used to assess red fluorescence (B2 channel), forward scatter, and side scatter (with following settings: gentle mix, high flow rate, fast measurement, 10,000 events). Intensity histograms were then gated for “PI-positive” or “PI-negative” using the raffinose and galactose cultures treated with DMSO as controls. The DMSO controls for raffinose or galactose-containing cultures were used to determine the window of increased cell death and this difference set to 100. All compounds were similarly gated and then compared to this maximal window to establish the percent reduction in PI-positive cells.

[1] = system: PIKFYVE TDP-43 yeast strain; assay: Propidium iodide viability assay in PIKFYVE TDP-43 yeast strain; format: cell-based; conditions: PIKFYVE TDP-43 yeast model
From the text: as §1, §2, §3

In the case of Cn1c(-c2ccncc2)nc2c(N3CCOCC3)ncnc21, the “FAB1 TDP-43 (active/inactive)” value (FAB1 TDP-43 yeast strain) is reported as “Inactive” and the “PIKfyve TDP-43 (active/inactive)” value [1] is reported as “Inactive”.
